Source: patent US20240343699A1, “DERIVATIVES OF SUBSTITUTED MORPHOLINES AND USES THEREOF” (Supernus Pharmaceuticals, Inc., priority 2023, published 2024)
Where “and” joins values, the source holds several entries; their conditions need not be identical. Identical values can stand only once. Like-named read-outs stand apart in the source and are kept apart here.

Key:
Binding assays = conditions: 1.0E−05 M
Experimental: A study was conducted to test COMPOUND D and COMPOUND E in Binding and enzyme and uptake assays.
COMPOUND D and COMPOUND E were tested at 1.0E-05 M.
The results are expressed as a percent of control specific binding and as a percent inhibition of control specific binding
The IC50 values (concentration causing a half-maximal inhibition of control specific binding) and Hill coefficients (nH) were determined by non-linear regression analysis of the competition curves generated with mean replicate values using Hill equation curve fitting […]
where Y=specific binding, A=left asymptote of the curve, D=right asymptote of the curve, C=compound concentration, C50=IC50, and nH=slope factor. This analysis was performed using software developed at Cerep (Hill software) and validated by comparison with data generated by the commercial software SigmaPlot® 4.0 for Windows® (© 1997 by SPSS Inc.).
The inhibition constants (Ki) were calculated using the Cheng Prusoff equation where L=concentration of radioligand in the assay, and KD=affinity of the radioligand for the receptor. A scatchard plot is used to determine the KD.
In Vitro Pharmacology. Results showing an inhibition (or stimulation for assays run in basal conditions) higher than […] were considered to represent significant effects of the test compounds. Results showing an inhibition (or stimulation) between 25% and 50% are indicative of weak to moderate effects. Results showing an inhibition (or stimulation) lower than […] were not considered significant and mostly attributable to variability of the signal around the control level.

[1] = format: in vitro ADME; conditions: Rat plasma, wet ice bath
Experimental: A study was conducted to examine the bioanalytical data for compounds in Rat plasma. […] Frozen Sprague Dawley rat (male pooled) and human (mixed gender) plasma was utilized for the study. Test compounds were dissolved in dimethyl sulfoxide (DMSO) to make a 10 mM stock solution. A working solution was made with MeOH/water. […]

[2] = Preclinical PK after intraperitoneal dosing of COMPOUND D, COMPOUND B and viloxazine; format: in vivo, mouse; conditions: COMPOUND B IP 10.948 mg/kg; for concentration at 0.25 h / concentration at 0.5 h: read-out: Plasma concentration of COMPOUND B; for MRT last: read-out: MRT0-last, plasma COMPOUND B; for Tmax: read-out: Tmax, plasma COMPOUND B
[3] = mouse, plasma, ip, 10.948 mg/kg, individual mice
[4] = mouse, plasma, ip, 10.948 mg/kg, mean

## CCOc1ccccc1OCC1CN(C(=O)OC(OC(=O)[C@@H](N)C(C)C)C(C)C)CCO1 (stereo partly shown) [COMPOUND E]
Binding assays
  inhibition, 5-HT2B(h) (agonist radioligand): 80.2%
  inhibition, 5-HT2C(h) (agonist radioligand): 54.1%
  inhibition, Ca^2+ channel (L, diltiazem site) (benzothiazepines) (antagonist radioligand): 78.9%
  inhibition, Ca^2+ channel (L, verapamil site) (phenylalkylamine) (antagonist radioligand): 50.7%
  inhibition, MT3 (ML2) (agonist radioligand): 51.1%
  inhibition, Na^+ channel (site 2) (antagonist radioligand): 84.5%
[1]; 5% Paraoxon ethyl as stabilizer, HQC, 0 hr sample
  Mean peak area ratio: 3.38
[1]; 5% Paraoxon ethyl as stabilizer, HQC, 1 hr
  % stability: 79.5%
[1]; 5% Paraoxon ethyl as stabilizer, HQC, 1 hr sample
  Mean peak area ratio: 2.69
[1]; 5% Paraoxon ethyl as stabilizer, HQC, 2 hr
  % stability: 62.9%
[1]; 5% Paraoxon ethyl as stabilizer, HQC, 2 hr sample
  Mean peak area ratio: 2.13
[1]; 5% Paraoxon ethyl as stabilizer, LQC, 0 hr sample
  Mean peak area ratio: 0.00882
[1]; 5% Paraoxon ethyl as stabilizer, LQC, 1 hr
  % stability: 68.3%
[1]; 5% Paraoxon ethyl as stabilizer, LQC, 1 hr sample
  Mean peak area ratio: 0.00602
[1]; 5% Paraoxon ethyl as stabilizer, LQC, 2 hr
  % stability: 63.7%
[1]; 5% Paraoxon ethyl as stabilizer, LQC, 2 hr sample
  Mean peak area ratio: 0.00562
[1]; No stabilizer, HQC, 0 hr sample
  Mean peak area ratio: 1.58
[1]; No stabilizer, HQC, 1 hr
  % stability: 20.9%
[1]; No stabilizer, HQC, 1 hr sample
  Mean peak area ratio: 0.33
[1]; No stabilizer, HQC, 2 hr
  % stability: 2.5%
[1]; No stabilizer, HQC, 2 hr sample
  Mean peak area ratio: 0.04
[1]; No stabilizer, LQC, 0 hr sample
  Mean peak area ratio: 0.00472
[1]; No stabilizer, LQC, 1 hr
  % stability: 28.2%
[1]; No stabilizer, LQC, 1 hr sample
  Mean peak area ratio: 0.00133
[1]; No stabilizer, LQC, 2 hr
  % stability: 5.3%
[1]; No stabilizer, LQC, 2 hr sample
  Mean peak area ratio: 0.00025

## CCOc1ccccc1OC[C@@H]1CN(C(=O)OC(OC(=O)[C@@H](N)C(C)C)C(C)C)CCO1 (stereo partly shown) [COMPOUND B]
[2]; 0.250 h, individual mice, 10.948 mg/kg
  Plasma concentration of COMPOUND B: BQL and 17.7 ng/mL
[2]; 0.500 h, individual mice, 10.948 mg/kg
  Plasma concentration of COMPOUND B: 4.88 ng/mL and 8.44 ng/mL
[2]; 1.00 h, individual mice
  Plasma concentration of COMPOUND B: BQL
[2]; 2.00 h, individual mice
  Plasma concentration of COMPOUND B: BQL
[2]; 4.00 h, individual mice
  Plasma concentration of COMPOUND B: BQL
[2]; 4.00 h, individual mice, 10.948 mg/kg
  Plasma concentration of Viloxazine: BQL
[2]; 8.00 h, individual mice
  Plasma concentration of COMPOUND B: BQL
[2]; 8.00 h, individual mice, 10.948 mg/kg
  Plasma concentration of Viloxazine: BQL
[2]; 24.0 h, individual mice
  Plasma concentration of COMPOUND B: BQL
  Plasma concentration of Viloxazine: BQL
[2]; individual mice
  Tlast, plasma COMPOUND B: 0.500 h
[2]; individual mice, 10.948 mg/kg
  AUC0-last, plasma COMPOUND B: 6.48 ng·h/mL and 1.22 ng·h/mL and 5.34 ng·h/mL
  Cmax, plasma COMPOUND B: 25.4 ng/mL and 4.88 ng/mL and 17.7 ng/mL
  MRT0-last, plasma COMPOUND B: 30 min and 18.8 min
  Tmax, plasma COMPOUND B: 30 min and 15 min
[2]; mean
  Tlast, plasma COMPOUND B: 0.500 h
[2]; mouse, plasma, ip, 10.948 mg/kg, 0.250 h, individual mice
  concentration at 0.25 h: 25.4 ng/mL
[2]; mouse, plasma, ip, 10.948 mg/kg, 0.250 h, mean
  concentration at 0.25 h: 21.6 ng/mL
[2]; mouse, plasma, ip, 10.948 mg/kg, 0.500 h, individual mice
  concentration at 0.5 h: 5.75 ng/mL
[2]; mouse, plasma, ip, 10.948 mg/kg, 0.500 h, mean
  concentration at 0.5 h: 6.36 ng/mL
[2]; [3]
  MRT last: 17.9 min
  Tmax: 15 min
[2]; mouse, plasma, ip, 10.948 mg/kg, mean, read-out: AUC0-last, plasma COMPOUND B
  AUC(0-t): 4.35 ng·h/mL
[2]; mouse, plasma, ip, 10.948 mg/kg, mean, read-out: Cmax, plasma COMPOUND B
  Cmax: 16 ng/mL
[2]; [4]
  MRT last: 22.3 min
  Tmax: 20 min
